Measurements: patent US11813268B2, “Mitofusin activators and uses thereof” (Albert Einstein College of Medicine, priority 2017, dated 2023)

What was measured:
[1] = tested on: lymphoma cells; experiment: Viability of lymphoma cells
Source text: (§1) TMRE staining was used as readout. […] CellROX was used to evaluate ROS levels.

[2] = tested on: Farage cells; experiment: Caspase 3 activation in Farage cells
Source text: as §1

[3] = tested on: WT MEFs; experiment: Mitochondrial respiration (Seahorse OCR) in WT MEFs; conditions: 1 μM, 2 h
[4] = tested on: MEFs; experiment: TMRE mitochondrial membrane potential assay in MEFs; format: cell-based; conditions: 5 μM, 24 h
Method: Carbonyl cyanide 3-chlorophenylhydrazone (CCP) was used as a positive control (20 μM, 40 min). Following treatments, cells were stained with 400 nM TMRE (Sigma Cat. 87917) for 20 min at 37° C. Subsequently, cells were washed with once with PBS. Fluorescence intensity was detected by a M100 microplate reader (TECAN, Ex: 540 nm/Em: 579 nm).

[5] = tested on: cancer cells; experiment: Toxicity in cancer cells; conditions: 15 μM, 72 h
Source text: as §1

[6] = tested on: Farage cells; experiment: ROS levels (CellROX) in Farage cells
Source text: as §1

[7] = tested on: MEFs; experiment: Caspase-3/7 activation assay in MEFs; format: cell-based; conditions: 5 μM, 24 h
Method: Cells (5×10^3 cells/well) were seeded in a 96-well white plate and treated with MASM7 (5 μM), doxorubicin (1 μM) or vehicle (0.05% DMSO). Caspase 3/7 activation was measured after 24 h by addition of the Caspase-Glo 3/7 chemiluminescence reagent according to the manufacturer's protocol (Promega). Luminescence was detected by a […] microplate reader (TECAN).

[8] = tested on: MEFs; experiment: Cell viability assay (CellTiter-Glo) in MEFs; format: cell-based; conditions: 24 h
Method: Cells (5×10^3 cells/well) were seeded in a 96-well white plate and treated with serial dilutions of MASM7 or vehicle (0.1% DMSO). Cell viability was assayed after 24 h by addition of CellTiter-Glo reagent according to the manufacturer's protocol (Promega). Luminescence was measured using a F200 PRO microplate reader (TECAN). Viability assays were performed in at least triplicate and the data normalized to vehicle-treated control wells. Dilutions of MASM7 were performed using a TECAN D300e Digital Dispenser from 10 mM stocks.

[9] = tested on: MFN1/MFN2 DKO MEFs; conditions: 1 μM, 2 h
Method: Mitochondrial respiration. Mitochondrial oxygen consumption rates (OCR) were assessed using a XF24 Analyzer (Seahorse Biosciences, Billerica Mass., USA). […] OCR was normalized to cell number or total protein content per well for each condition tested. […] Data are expressed as Mean±SEM, OCR from untreated control for each condition; using n=3-5 individual experiments with n=3-5 replicates for each group tested.

[10] = tested on: MFN1/MFN2 DKO MEFs reconstituted with WT, L727A and D725A/L727A MFN2; conditions: L727A and D725A/L727A MFN2 vs WT
Method: Evaluation of mitochondrial morphology using mitochondrial aspect ratio (Mito AR; length/width) as a readout. […] Mitotracker green stains mitochondria. Scale bar 20 μm. […] Quantification of Mito AR in MFN1/MFN2 DKO MEFs reconstituted with WT, L727A and D725A/L727A MFN2.
Live cell imaging. […] Images were taken with Leica SP5 inverted confocal microscope. Data were analyzed with Image J software. >200 mitochondria were measured per condition in mitochondrial aspect ratio.

[11] = tested on: Farage cells; experiment: TMRE mitochondrial membrane potential in Farage cells
Source text: as §1

[12] = tested on: MEFs; experiment: Staurosporine-induced apoptosis (active caspase 3) in MEFs; format: cell-based; conditions: co-treated with staurosporine (STS)
Method: Transfected HEK 293T or MEFs were washed with once PBS and fixed with 2% PFA for 13 min. Subsequently, cells were blocked, then incubated for 1 h at room temperature with the primary antibody for ATP5B (Abcam; ab128743) or active caspase 3 (R&D Systems; AF835). After incubation with the primary antibody, cells were washed with PBS and incubated for 1 h at room temperature with the secondary antibody (ThermoFisher Scientific; A11010). […] Data were analyzed with Image J software.
Consistent with previous reports showing that inhibition of fission reduced apoptosis (8,12-14), the effect of MASM7 was evaluated upon a classic apoptotic stimulus such as staurosporine (STS) in MEFs.

[13] = tested on: WT MEFs; experiment: cells
Source text: Next, it was visually examined if MASM7 could induce mitochondrial fusion in MEFs, using mitochondrial aspect ratio (mitochondrial length/width, reflecting fusion) as a readout. […] (FIG. 5).

CC(Sc1nnc(C2CC2)n1-c1ccccc1)C(=O)Nc1sc2c(c1C(N)=O)CCC2 (stereo not drawn) [MASM7]
Viability of lymphoma cells [1]: reduces viability selectively in lymphoma cells | Caspase 3 activation in Farage cells [2]: promotes caspase 3 activation in a dose and time dependent manner | ATP production, WT MEFs [3]: increases ATP production | Basal and maximal oxygen consumption rate (OCR), WT MEFs [3]: increases basal and maximal oxygen consumption rate (OCR) | Mitochondrial membrane potential in MEFs (TMRE) [4]: did not reduce viability or mitochondrial membrane potential | Toxicity in the indicated cancer cells [5]: low to moderate toxicity | ROS levels in Farage cells (CellROX) [6]: increases ROS levels | Caspase 3/7 activation in MEFs [7]: did not induce caspase 3/7 activation | Viability of MEFs [8]: did not reduce viability | Basal and maximal OCR, MFN1/MFN2 DKO MEFs [9]: does not increase basal and maximal OCR | MASM7-induced fusion (Mito AR) with HR2 domain mutations of Mfn2 [10]: inhibits MASM7-induced fusion | Mitochondrial membrane potential in Farage cells (TMRE) [11]: reduces mitochondrial membrane potential in a dose and time dependent manner | Population of MEFs positive to caspase 3 activation [12]: reduced significantly | Mitochondrial aspect ratio in WT MEFs ([13]; 1 μM, 2 h): increased mitochondrial aspect ratio | EC50 ([13]; read-out: EC50 for inducing fusion (Mito AR)): 75 nM
